From patent publication US20220088016A1, “CANCER TREATMENT USING MULTI-TARGETED KINASE INHIBITOR IN COMBINATION OF PROTEIN KINASE BIOMARKERS” (ZHEJIANG CROWNMAB BIOTECH CO. LTD., priority 2019, published 2022)

Assays:
Test in all cases: Kinase IC50 (Eurofins KinaseProfiler)
Type in all cases: biochemical
PDGFRα (V561D) (h) = target: T1, PDGFRα (V561D) (h) (Homo sapiens, UniProt P16234, V561D)
T1 construct: purchased Eurofins (KinaseProfiler service)
Experimental: (§1) CBT-102 were tested against each of the selected kinases using the Eurofins standard KinaseProfder assays and following the relevant standard operating procedures. The required volume of the 50× stock of test compound (CBT-102) was added to the assay well, before a reaction mix containing the enzyme and substrate was added. The reaction was initiated by the addition of ATP at the selected concentration. There was no pre-incubation of the compound with the enzyme/substrate mix prior to ATP addition.
(§2) Data are handled using a custom-built in-house analysis software. Results are expressed as kinase activity remaining, as a percentage of the DMSO control. This is calculated using the following formula: […]
(§3) For IC50 determinations, data are analyzed using XLFit version 5.3 (ID Business Solutions).

LOK (h) = target: T2, LOK (h) (Homo sapiens, UniProt O94804)
T2 construct: purchased Eurofins (KinaseProfiler service)
Experimental: as §1, §2, §3

FAK (h) = target: T3, FAK (h) (Homo sapiens, UniProt Q05397)
T3 construct: purchased Eurofins (KinaseProfiler service)
Experimental: as §1, §2, §3

FGFR1 (h) = target: T4, FGFR1 (h) (Homo sapiens, UniProt P11362)
T4 construct: purchased Eurofins (KinaseProfiler service)
T4 sequence (P11362 22-822): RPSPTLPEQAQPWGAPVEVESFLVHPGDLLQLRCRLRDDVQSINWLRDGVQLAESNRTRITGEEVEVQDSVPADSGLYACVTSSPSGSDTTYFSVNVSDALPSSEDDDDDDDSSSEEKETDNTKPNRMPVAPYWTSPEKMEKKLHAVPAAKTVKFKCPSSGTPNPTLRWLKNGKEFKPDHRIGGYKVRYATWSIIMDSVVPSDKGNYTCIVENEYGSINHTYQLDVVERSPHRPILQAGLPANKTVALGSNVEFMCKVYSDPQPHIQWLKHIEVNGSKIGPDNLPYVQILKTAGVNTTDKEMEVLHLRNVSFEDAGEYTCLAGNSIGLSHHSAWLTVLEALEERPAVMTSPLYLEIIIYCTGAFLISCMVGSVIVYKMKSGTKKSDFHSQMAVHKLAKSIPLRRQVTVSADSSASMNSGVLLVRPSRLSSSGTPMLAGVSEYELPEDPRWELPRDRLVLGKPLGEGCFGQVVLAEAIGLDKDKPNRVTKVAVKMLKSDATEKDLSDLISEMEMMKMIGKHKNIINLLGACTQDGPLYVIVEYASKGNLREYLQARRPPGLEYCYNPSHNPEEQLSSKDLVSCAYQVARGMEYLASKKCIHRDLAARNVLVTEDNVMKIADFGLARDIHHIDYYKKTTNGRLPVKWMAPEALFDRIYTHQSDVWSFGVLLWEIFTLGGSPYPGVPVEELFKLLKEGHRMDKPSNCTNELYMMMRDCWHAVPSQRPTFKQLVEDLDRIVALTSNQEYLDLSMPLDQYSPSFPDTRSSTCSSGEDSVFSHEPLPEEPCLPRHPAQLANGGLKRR
Experimental: as §1, §2, §3

IRAK4 (h) = target: T5, IRAK4 (h) (Homo sapiens, UniProt Q9NWZ3)
T5 construct: purchased Eurofins (KinaseProfiler service)
Experimental: as §1, §2, §3

TYK2 (h) = target: T6, TYK2 (h) (Homo sapiens, UniProt P29597)
T6 construct: purchased Eurofins
Experimental: as §1, §2, §3

MAP4K5 (h) = target: T7, MAP4K5 (h) (Homo sapiens, UniProt Q9Y4K4)
T7 construct: purchased Eurofins (KinaseProfiler service)
T7 sequence (Q9Y4K4 whole entry): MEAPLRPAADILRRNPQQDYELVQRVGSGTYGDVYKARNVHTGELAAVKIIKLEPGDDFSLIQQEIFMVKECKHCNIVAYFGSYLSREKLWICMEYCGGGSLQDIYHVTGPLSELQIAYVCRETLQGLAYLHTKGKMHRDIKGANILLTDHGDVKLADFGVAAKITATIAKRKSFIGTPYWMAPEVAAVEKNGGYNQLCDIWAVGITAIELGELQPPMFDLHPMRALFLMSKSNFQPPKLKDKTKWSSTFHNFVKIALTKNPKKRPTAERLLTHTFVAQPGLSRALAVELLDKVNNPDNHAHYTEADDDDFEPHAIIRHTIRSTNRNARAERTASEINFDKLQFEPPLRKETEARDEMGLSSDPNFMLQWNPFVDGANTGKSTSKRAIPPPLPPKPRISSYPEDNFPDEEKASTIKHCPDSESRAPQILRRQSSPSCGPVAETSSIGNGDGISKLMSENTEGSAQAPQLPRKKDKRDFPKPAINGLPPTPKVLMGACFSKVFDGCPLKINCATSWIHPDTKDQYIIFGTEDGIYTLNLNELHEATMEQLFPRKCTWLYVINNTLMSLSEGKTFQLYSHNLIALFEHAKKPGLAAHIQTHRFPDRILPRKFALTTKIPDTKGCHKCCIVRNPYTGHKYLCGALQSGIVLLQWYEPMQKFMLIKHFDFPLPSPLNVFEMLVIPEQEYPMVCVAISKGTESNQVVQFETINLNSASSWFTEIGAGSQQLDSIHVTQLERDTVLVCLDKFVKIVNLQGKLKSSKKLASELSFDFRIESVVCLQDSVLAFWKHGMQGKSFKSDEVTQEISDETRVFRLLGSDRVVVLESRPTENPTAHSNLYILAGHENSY
Experimental: as §1, §2, §3

ErbB4 (h) = target: T8, ErbB4 (h) (Homo sapiens, UniProt Q15303)
T8 construct: purchased Eurofins (KinaseProfiler service)
Experimental: as §1, §2, §3

Aurora-B (h) = target: T9, Aurora-B (h) (Homo sapiens, UniProt Q96GD4)
T9 construct: purchased Eurofins
Experimental: as §1, §2, §3

Fgr (h) = target: T10, Fgr (h) (Homo sapiens, UniProt P09769)
T10 construct: purchased Eurofins (KinaseProfiler service)
Experimental: as §1, §2, §3

Ret (h) = target: T11, Ret (h) (Homo sapiens, UniProt P07949)
T11 construct: purchased Eurofins
Experimental: as §1, §2, §3

CHK1 (h) = target: T12, CHK1 (h) (Homo sapiens, UniProt O14757)
T12 construct: purchased Eurofins (KinaseProfiler service)
T12 sequence (O14757 whole entry): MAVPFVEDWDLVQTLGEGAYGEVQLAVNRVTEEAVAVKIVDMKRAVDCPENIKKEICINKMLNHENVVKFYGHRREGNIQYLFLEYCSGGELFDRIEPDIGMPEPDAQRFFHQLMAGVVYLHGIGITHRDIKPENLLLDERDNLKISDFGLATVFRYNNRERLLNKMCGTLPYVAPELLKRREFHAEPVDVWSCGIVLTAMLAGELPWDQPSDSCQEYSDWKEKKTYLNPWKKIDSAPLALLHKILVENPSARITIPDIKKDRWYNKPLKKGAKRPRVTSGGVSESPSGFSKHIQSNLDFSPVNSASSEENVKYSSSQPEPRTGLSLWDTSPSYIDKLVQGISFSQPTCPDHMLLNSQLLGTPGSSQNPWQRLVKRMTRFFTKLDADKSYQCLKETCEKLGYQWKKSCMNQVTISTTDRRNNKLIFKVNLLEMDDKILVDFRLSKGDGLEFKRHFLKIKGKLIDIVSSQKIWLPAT
Experimental: as §1, §2, §3

EphA1 (h) = target: T13, EphA1 (h) (Homo sapiens, UniProt P21709)
T13 construct: purchased Eurofins (KinaseProfiler service)
Experimental: as §1, §2, §3

Lck (h) = target: T14, Lck (h) (Homo sapiens, UniProt P06239)
T14 construct: purchased Eurofins (KinaseProfiler service)
Experimental: as §1, §2, §3

EphB2 (h) = target: T15, EphB2 (h) (Homo sapiens, UniProt P29323)
T15 construct: purchased Eurofins (KinaseProfiler service)
Experimental: as §1, §2, §3

BRK (h) = target: T16, BRK (h) (Homo sapiens, UniProt Q13882)
T16 construct: purchased Eurofins
Experimental: as §1, §2, §3

Met (h) = target: T17, Met (h) (Homo sapiens, UniProt P08581)
T17 construct: purchased Eurofins (KinaseProfiler service)
Experimental: as §1, §2, §3

SGK3 (h) = target: T18, SGK3 (h) (Homo sapiens, UniProt Q96BR1)
T18 construct: purchased Eurofins
Experimental: as §1, §2, §3

cKit (V654A) (h) = target: T19, cKit (V654A) (h) (Homo sapiens, UniProt P10721, V654A)
T19 construct: purchased Eurofins (KinaseProfiler service)
Experimental: as §1, §2, §3

Aurora-C (h) = target: T20, Aurora-C (h) (Homo sapiens, UniProt Q9UQB9)
T20 construct: purchased Eurofins
T20 sequence (Q9UQB9 whole entry): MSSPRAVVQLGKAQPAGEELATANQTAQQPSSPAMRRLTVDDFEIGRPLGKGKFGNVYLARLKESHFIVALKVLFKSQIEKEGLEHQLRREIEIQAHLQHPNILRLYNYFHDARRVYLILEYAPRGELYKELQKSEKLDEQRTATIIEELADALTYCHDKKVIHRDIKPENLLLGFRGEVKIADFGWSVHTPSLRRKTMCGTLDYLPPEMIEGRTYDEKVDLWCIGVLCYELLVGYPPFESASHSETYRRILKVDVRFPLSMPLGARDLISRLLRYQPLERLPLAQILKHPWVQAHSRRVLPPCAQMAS
Experimental: as §1, §2, §3

FGFR4 (h) = target: T21, FGFR4 (h) (Homo sapiens, UniProt P22455)
T21 construct: purchased Eurofins (KinaseProfiler service)
Experimental: as §1, §2, §3

TNIK (h) = target: T22, TNIK (h) (Homo sapiens, UniProt Q9UKE5)
T22 construct: purchased Eurofins
Experimental: as §1, §2, §3

NEK2 (h) = target: T23, NEK2 (h) (Homo sapiens, UniProt P51955)
T23 construct: purchased Eurofins (KinaseProfiler service)
Experimental: as §1, §2, §3

PTK5 (h) = target: T24, PTK5 (h) (Homo sapiens, UniProt P42685)
T24 construct: purchased Eurofins
Experimental: as §1, §2, §3

CDKL3 (h) = target: T25, CDKL3 (h) (Homo sapiens, UniProt Q8IVW4)
T25 construct: purchased Eurofins (KinaseProfiler service)
Experimental: as §1, §2, §3

PKBα (h) = target: T26, PKBα (h) (Homo sapiens, UniProt P31749)
T26 construct: purchased Eurofins
Experimental: as §1, §2, §3

EGFR (h) = target: T27, EGFR (h) (Homo sapiens, UniProt P00533)
T27 construct: purchased Eurofins (KinaseProfiler service)
Experimental: as §1, §2, §3

IGF-1R (h) = target: T28, IGF-1R (h) (Homo sapiens, UniProt P08069)
T28 construct: purchased Eurofins (KinaseProfiler service)
T28 sequence (P08069 31-1367): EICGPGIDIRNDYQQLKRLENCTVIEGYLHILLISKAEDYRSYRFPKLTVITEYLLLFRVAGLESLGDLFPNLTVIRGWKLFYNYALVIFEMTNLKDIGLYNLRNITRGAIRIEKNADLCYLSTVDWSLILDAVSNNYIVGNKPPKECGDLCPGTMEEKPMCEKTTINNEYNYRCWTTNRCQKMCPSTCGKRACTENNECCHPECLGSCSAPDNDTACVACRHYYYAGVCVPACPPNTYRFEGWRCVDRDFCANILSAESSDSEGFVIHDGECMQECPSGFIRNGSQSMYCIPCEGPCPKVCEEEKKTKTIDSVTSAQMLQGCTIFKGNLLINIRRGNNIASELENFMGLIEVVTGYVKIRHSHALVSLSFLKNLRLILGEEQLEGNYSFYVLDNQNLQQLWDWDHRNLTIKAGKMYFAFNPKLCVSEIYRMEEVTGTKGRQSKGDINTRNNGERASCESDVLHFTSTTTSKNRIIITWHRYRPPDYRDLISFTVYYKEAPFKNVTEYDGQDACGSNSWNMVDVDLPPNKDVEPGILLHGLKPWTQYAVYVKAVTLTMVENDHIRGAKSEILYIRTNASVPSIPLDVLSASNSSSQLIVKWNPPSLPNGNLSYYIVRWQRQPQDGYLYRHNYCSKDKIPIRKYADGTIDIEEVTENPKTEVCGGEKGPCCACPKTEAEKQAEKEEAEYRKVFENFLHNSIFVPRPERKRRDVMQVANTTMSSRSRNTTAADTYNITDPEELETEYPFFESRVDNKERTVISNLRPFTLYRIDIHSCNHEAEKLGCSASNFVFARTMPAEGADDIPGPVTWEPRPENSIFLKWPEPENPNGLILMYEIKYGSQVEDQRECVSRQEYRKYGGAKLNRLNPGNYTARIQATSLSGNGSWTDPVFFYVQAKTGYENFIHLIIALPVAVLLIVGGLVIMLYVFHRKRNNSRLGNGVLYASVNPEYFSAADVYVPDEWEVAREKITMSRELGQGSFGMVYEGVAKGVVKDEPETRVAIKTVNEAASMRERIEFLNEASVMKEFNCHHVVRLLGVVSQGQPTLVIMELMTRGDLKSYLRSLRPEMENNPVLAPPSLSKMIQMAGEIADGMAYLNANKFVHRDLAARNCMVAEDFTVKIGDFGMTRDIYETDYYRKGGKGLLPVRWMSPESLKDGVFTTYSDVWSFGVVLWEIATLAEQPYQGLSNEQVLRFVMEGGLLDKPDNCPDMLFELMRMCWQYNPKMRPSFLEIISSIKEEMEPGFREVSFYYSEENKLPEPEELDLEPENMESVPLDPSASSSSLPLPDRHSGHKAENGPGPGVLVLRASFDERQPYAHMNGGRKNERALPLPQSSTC
Experimental: as §1, §2, §3

JAK2 (h) = target: T29, JAK2 (h) (Homo sapiens, UniProt O60674)
T29 construct: purchased Eurofins (KinaseProfiler service)
Experimental: as §1, §2, §3

IR (h) = target: T30, IR (h) (Homo sapiens, UniProt P06213)
T30 construct: purchased Eurofins (KinaseProfiler service)
Experimental: as §1, §2, §3

SAPK3 (h) = target: T31, SAPK3 (h) (Homo sapiens, UniProt P53778)
T31 construct: purchased Eurofins
Experimental: as §1, §2, §3

Abl (h) = target: T32, Abl (h) (Homo sapiens, UniProt P00519)
T32 construct: purchased Eurofins
T32 sequence (P00519 whole entry): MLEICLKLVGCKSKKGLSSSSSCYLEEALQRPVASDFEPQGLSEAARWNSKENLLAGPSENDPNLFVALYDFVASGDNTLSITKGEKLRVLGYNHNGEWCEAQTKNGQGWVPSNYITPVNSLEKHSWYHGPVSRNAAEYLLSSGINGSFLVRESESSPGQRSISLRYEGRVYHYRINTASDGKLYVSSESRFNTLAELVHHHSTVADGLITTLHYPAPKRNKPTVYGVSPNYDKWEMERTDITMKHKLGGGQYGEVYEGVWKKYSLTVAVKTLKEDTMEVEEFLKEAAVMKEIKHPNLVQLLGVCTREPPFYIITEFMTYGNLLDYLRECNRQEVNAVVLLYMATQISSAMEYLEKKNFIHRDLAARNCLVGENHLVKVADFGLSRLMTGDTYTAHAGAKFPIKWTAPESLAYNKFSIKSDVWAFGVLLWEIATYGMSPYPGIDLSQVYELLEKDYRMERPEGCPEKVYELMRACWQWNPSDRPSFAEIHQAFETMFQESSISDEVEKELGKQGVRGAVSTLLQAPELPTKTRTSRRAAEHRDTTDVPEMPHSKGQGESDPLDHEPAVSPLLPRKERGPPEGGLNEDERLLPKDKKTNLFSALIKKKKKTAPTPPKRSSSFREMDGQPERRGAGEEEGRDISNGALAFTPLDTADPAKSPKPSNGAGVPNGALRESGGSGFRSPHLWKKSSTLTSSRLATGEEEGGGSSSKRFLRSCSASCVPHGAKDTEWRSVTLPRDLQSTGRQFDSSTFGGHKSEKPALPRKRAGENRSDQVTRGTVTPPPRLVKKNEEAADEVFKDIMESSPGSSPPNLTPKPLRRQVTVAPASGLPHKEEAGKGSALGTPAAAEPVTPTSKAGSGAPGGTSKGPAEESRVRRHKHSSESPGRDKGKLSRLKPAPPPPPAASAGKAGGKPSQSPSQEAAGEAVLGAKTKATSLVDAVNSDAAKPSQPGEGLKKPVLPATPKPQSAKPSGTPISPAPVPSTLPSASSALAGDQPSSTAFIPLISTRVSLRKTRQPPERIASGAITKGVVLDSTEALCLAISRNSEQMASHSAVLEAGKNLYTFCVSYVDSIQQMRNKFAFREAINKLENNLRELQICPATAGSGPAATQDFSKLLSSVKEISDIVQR
Experimental: as §1, §2, §3

cKit (D816V) (h) = target: T33, cKit (D816V) (h) (Homo sapiens, UniProt P10721, D816V)
T33 construct: purchased Eurofins (KinaseProfiler service)
Experimental: as §1, §2, §3

c-RAF (h) = target: T34, c-RAF (h) (Homo sapiens, UniProt P04049)
T34 construct: purchased Eurofins (KinaseProfiler service)
Experimental: as §1, §2, §3

KDR (h) = target: T35, KDR (h) (Homo sapiens, UniProt P35968)
T35 construct: purchased Eurofins (KinaseProfiler service)
Experimental: as §1, §2, §3

Work on `Cc1cc(Oc2cc(NC(=O)C3CC3)ncn2)ccc1NC(=O)Nc1ccc(Cl)c(C(F)(F)F)c1` [CBT-102] yielded an IC50 (PDGFRα (V561D) (h)) of 0.028 µM, an IC50 (LOK (h)) of 1.09 µM and an IC50 (FAK (h)) of over 10 µM. For the same molecule, the IC50 (FGFR1 (h)) was 0.41 µM, the IC50 (IRAK4 (h)) was over 10 µM and the IC50 (TYK2 (h)) was over 10 µM. The IC50 (MAP4K5 (h)) was 0.024 µM, the IC50 (ErbB4 (h)) was over 10 µM and the IC50 (Aurora-B (h)) was 0.525 µM. For the same molecule, the IC50 (Fgr (h)) was 1.43 µM, the IC50 (Ret (h)) was 0.043 µM and the IC50 (CHK1 (h)) was over 10 µM. For the same molecule, the IC50 (EphA1 (h)) was 1.11 µM, the IC50 (Lck (h)) was 1.34 µM and the IC50 (EphB2 (h)) was 0.418 µM. The IC50 (BRK (h)) was over 10 µM, the IC50 (Met (h)) was 2.86 µM and the IC50 (SGK3 (h)) was over 10 µM. It also gave an IC50 (cKit (V654A) (h)) of 0.278 µM, an IC50 (Aurora-C (h)) of over 10 µM and an IC50 (FGFR4 (h)) of over 10 µM. The IC50 (TNIK (h)) was 0.113 µM, the IC50 (NEK2 (h)) was over 10 µM and the IC50 (PTK5 (h)) was 0.052 µM. The IC50 (CDKL3 (h)) was over 10 µM, the IC50 (PKBα (h)) was over 10 µM and the IC50 (EGFR (h)) was over 10 µM. It also gave an IC50 (IGF-1R (h)) of over 10 µM, an IC50 (JAK2 (h)) of over 10 µM and an IC50 (IR (h)) of over 10 µM. The IC50 (SAPK3 (h)) was 1.2 µM, the IC50 (Abl (h)) was 1.83 µM and the IC50 (cKit (D816V) (h)) was over 10 µM. It also gave an IC50 (c-RAF (h)) of 0.031 µM and an IC50 (KDR (h)) of 0.025 µM.
